According to patent US7491849B2, “Oligoamine compounds and derivatives thereof for cancer therapy” (priority 2001, dated 2009):

Experiments:
Calf-thymus DNA = Calf-thymus DNA aggregation (absorbance at 320 nm); type: biochemical; details: 50 mM NaCl, 1 mM Na-cacodylate pH 7.0
Protocol: Calf-thymus DNA aggregation by spermine and oligoamines.
Test for DNA Aggregation: DNA aggregation was studied using a Perkin-Elmer Lambda 25 UV/visible spectrophotometer connected to a PTP 6 heating unit using a previously published procedure (see Basu, H S and Marton, L J, “The interaction of spermine and pentamines with DNA,” Biochemical Journal 244:243-246 (1987)). Aggregation was determined in 50 mM NaCl, 1 mM Na-cacodylate pH 7.0 buffer by observing the increase in DNA absorbance (approximately 0.5 A260 units) at 320 nm.

LnCap = assay: MTT assay, tumor cell growth, LnCap; type: cell-based; details: 6 days incubation, read-out: ID50 (μM) values for Human Tumor Cell Lines, LnCap
Protocol: (§1) Effect of Saturated Oligoamines on Human Prostate Tumor Cell Growth by the MTT assay. Saturated oligoamines inhibited prostate cancer cell growth in vitro. DU-145 cells were most sensitive and PC-3 cells were less sensitive to the effects of oligoamines. In general, ID50 values of less than 0.5 μM were obtained (Table 2). Even though the PC-3 cells were relatively more resistant to the oligoamines, at a 5 μM concentration the oligoamines reduced the cell number to less than 1% of the control on day 6 of incubation. Tissue cultures and the MTT assay were performed as follows.
(§2) Tissue Culture. Cells were seeded into 75 cm^2 culture flasks with 15 ml of Eagle's minimal essential medium supplemented with 10% fetal calf serum and nonessential amino acids. The flasks were incubated in a humidified 95% air/5% CO2 atmosphere. The cells were grown for at least 24 h to ensure that they are in the log phase of growth and then they were treated with the oligoamines. Cells were harvested by treatment for 5 min with STV (saline A, 0.05% trypsin, 0.02% EDTA) at 37° C. The flasks were rapped on the lab bench, pipetted several times and aliquots of cell suspension were withdrawn and counted using a Coulter particle counter that has been standardized for counting each cell line using a hemacytometer.
(§3) MTT Assay: Trypsinized cell suspensions were diluted to seed 80 μl suspensions containing 500 cells in each well of a 96 well Corning microtiter plate and incubated overnight at 37° C. in a humidified incubator in 5% CO2. 20 μl of appropriately diluted stock solution of each drug were added to the middle 8 columns of cell suspension in the microtiter plates. Each drug concentration was run in quadruplicate. Outer columns of the plates were used for buffer controls. Cells were incubated with the drug for 6 days at 37° C. in 5% CO2/H2O atmosphere. 25 μl of 5 mg/ml solution of 3-(4,5-dimethylthiazol-2-yl)-2,5-diphenyl tetrazolium bromide (MTT) were added to each well and incubated for 4 hours at 37° C. in 5% CO2/H2O incubator. Cells were lysed by incubating overnight with 100 μl lysis buffer (500 ml of the lysis buffer contains: 100 g lauryl sulfate (SDS), 250 ml of N,N-dimethylformamide, and 2 ml of glacial acetic acid, made up to volume with water; pH 4.8).
(§4) The color was monitored at room temperature at 570 nm in a E-max Precision Microplate Reader (Molecular Devices Corporation, Sunnyvale, Calif.) and data was analyzed using cell survival software supplied by Molecular Devices Corporation.

DU145 = assay: MTT assay, tumor cell growth, DU145; type: cell-based; details: 6 days incubation, read-out: ID50 (μM) values for Human Tumor Cell Lines, DU145
Protocol: as §1, §2, §3, §4

[1] = test system: DU-145 human prostate tumor xenografts; assay: Subcutaneous DU-145 prostate tumor xenograft in mice; type: in vivo, male NCr-nu mice; details: for Days Delay (T-C) / Non-Specific Deaths/Total / Tumor Free Survival/Total / Tumor Regression, Number of Complete / Tumor Regression, Number of Partial / Days to 4 Doublings / % T/C, Day 21 (median tumor weight) / % T/C, Day 35 (median tumor weight) / median tumor growth delay [(T-C)/C x 100] / tolerability / deaths: 6.25 mg/kg IV; for Days Delay (T-C) / Non-Specific Deaths/Total / Tumor Free Survival/Total / Tumor Regression, Number of Complete / Tumor Regression, Number of Partial / Days to 4 Doublings / % T/C, Day 21 (median tumor weight) / % T/C, Day 35 (median tumor weight): Q1D x 5 day 14, 28; for Days to 4 Doublings: control 17.1; for % T/C, Day 21 (median tumor weight): three days after first round; for % T/C, Day 35 (median tumor weight): three days after second round; for median tumor growth delay [(T-C)/C x 100]: two rounds, statistically significant; for antitumor activity (summary): at a dosage which was well tolerated (6.25 mg/kg IV)
Protocol: (§5) Response of implanted sc DU-145 prostate tumors to treatment with SL-11159 and SL-11226. This experiment evaluates the antitumor efficacy of SLIL Biomedical Corporation compounds (SL-11159, SL-11226) against subcutaneously-implanted DU-145 human prostate tumor xenografts in male NCr-nu (line 3A10F17T1) mice. All compounds were tested at a single dose level when administered intravenously (iv), at 6.25 mg/kg. Both SL-11159 and SL-11226 were prepared in water for injection (soluble); the injection volume was 0.1 mL/10 g body weight.
All compounds were administered for two rounds of five daily treatments with a nine-day rest period between the rounds. The control group was treated with vehicle (water for injection) for two rounds on a Q1D×5 schedule. There were sixteen mice in the control group and eight mice in each of the treatment groups. All treatments were initiated on day 14 postimplant when all mice had established tumors ranging in size from 75 to 198 mg. The experiment was terminated on day 53 after tumor implantation. The individual animal's time to reach the evaluation size (time to reach four doublings) was used in the calculations of the median tumor growth delay [(T−C)/C×100, %] and as the endpoint in a life tables analysis (stratified Kaplan-Meier estimation followed by the Mantel-Haenszel log-rank test) in order to statistically compare the growth data between groups (see Table 5; group 1 is the control group, group 2 was treated with SL-11159, group 3 was treated with SL-11226).
The time required for a tumor to double in mass is calculated based on the initial tumor weight at the beginning of the treatment period. When the initial tumor weight has been selected, tumor weights are then examined, beginning with the last recorded value, until a doubling is calculated. Examination from the last recorded value is to ensure that the doubling time is calculated during the final phase of tumor growth and not prior to a tumor regression. Values between measurements are calculated by exponential […], and a value may be estimated after the final measured weight provided the extrapolated value occurs prior to the animal's death.)
Control tumors grew well in fourteen out of sixteen mice. There was one xenograft failure (no-take). One animal died during the second round of the vehicle treatment, on day 29, with a tumor weight of 770 mg. Tumors reached the evaluation size of four mass doublings in 17.1 days, which covers the period of the first round of treatment and three days of the second round of treatment. The effect of each round of treatment was evaluated by the comparison of the median tumor weight of the treated groups on days 21 or 35 (three days after the end of the first or the second round of treatment, respectively) to the median tumor weight of the control group on the same day (T/C×100%, see Table 4A).
Tumor regression was scored (excluding nonspecific deaths), according to the smallest tumor size attained after the beginning of treatment relative to the size at first treatment: • partial: <50 percent of its size at 1 st rx, but not complete. • complete: tumor becomes unpalpable.
Duration of regression: the interval during which a tumor classified as a partial or complete regressor was below 50 percent of its size at first treatment.
Evaluation size: this value is the tumor mass selected at four mass doublings beginning with the initial tumor size at the start of treatment.
T−C (days): the difference in the median of times postimplant for tumors of the treated groups to attain an evaluation size compared to the median of the control group.

[2] = Solubility in water for injection; type: physicochemical; details: dosing solution, 6.25 mg/kg in 0.1 mL/10 g body weight
Protocol: as §5

Structure (SMILES) | Conc. (μM) at the start of DNA Aggregation (Calf-thymus DNA) | IC50 (LnCap) | IC50 (DU145) | Days Delay (T-C) [1] | Non-Specific Deaths/Total [1] | Tumor Free Survival/Total [1] | Tumor Regression, Number of Complete [1] | Tumor Regression, Number of Partial [1] | Days to 4 Doublings [1] | % T/C, Day 21 (median tumor weight) [1] | % T/C, Day 35 (median tumor weight) [1] | median tumor growth delay [(T-C)/C x 100] [1] | antitumor activity (summary) [1] | tolerability / deaths ([1]; first round of treatment) | tolerability / deaths ([1]; second round of treatment) | solubility in water for injection [2] | tolerability / deaths ([1]; whole treatment (two rounds))
CCNCCCCNCCCCNCCCCNCCCCNCCCCNCCCCNCCCCNCCCCNCCCCNCC.Cl.Cl.Cl.Cl.Cl.Cl.Cl.Cl.Cl.Cl [SL-11159] | 2.5 µM | 0.25 µM | 0.15 µM | >6.9 days | 1/8 | 0/8 | 0 | 0 | >24.0 days | 65% | 63% | > 40% | measurable antitumor activity | well tolerated without deaths | death of one animal | soluble | –
CCNCCCCNCCCCNCCCCNCCCCNCCCCNCCCCNCCCCNCCCCNCCCCNCCCCNCCCCNCC.Cl.Cl.Cl.Cl.Cl.Cl.Cl.Cl.Cl.Cl.Cl.Cl [SL-11226] | 2.2 µM | 0.15 µM | 0.08 µM | >6.4 days | 0/8 | 0/8 | 0 | 0 | >23.5 days | 46% | 61% | > 37% | measurable antitumor activity | – | – | soluble | well tolerated without deaths
